The values that follow come from patent US11292821B2, “Peptides and combination of peptides for use in immunotherapy against lung cancer, including NSCLC, SCLC and other cancers” (Immatics Biotechnologies GmbH, priority 2017, dated 2022).

One test deals with CD8+ T cells. As to the kind of experiment: In vitro T-cell priming assay with aAPCs (in vitro immunogenicity for MHC class I presented peptides). The test is classed as cell-based, human. The note with it: in vitro immunogenicity, HLA A*24.
The subject of a further test is HLA-A*24. As to the kind of experiment: MHC binding assay (UV-ligand exchange, β2m ELISA). More on the design: species or system human.
Another test has as its target HLA-B*07 (Homo sapiens, UniProt P01889). As to the kind of experiment: MHC binding assay (UV-ligand exchange, β2m ELISA). The source says:
Candidate peptides for T cell based therapies according to the present invention were further tested for their MHC binding capacity (affinity). The individual peptide-MHC complexes were produced by UV-ligand exchange, where a UV-sensitive peptide is cleaved upon UV-irradiation, and exchanged with the peptide of interest as analyzed. Only peptide candidates that can effectively bind and stabilize the peptide-receptive MHC molecules prevent dissociation of the MHC complexes. To determine the yield of the exchange reaction, an ELISA was performed based on the detection of the light chain (β2m) of stabilized MHC complexes. The assay was performed as generally described in Rodenko et al. (Rodenko et al., 2006).
96 well MAXISorp plates (NUNC) were coated over night with 2 ug/ml streptavidin in PBS at room temperature, washed 4× and blocked for 1 h at 37° C. in 2% BSA containing blocking buffer. […] Peptide-MHC monomers of the UV-exchange reaction were diluted 100-fold in blocking buffer. Samples were incubated for 1 h at 37° C., washed four times, incubated with 2 ug/ml HRP conjugated anti-β2m for 1h at 37° C., washed again and detected with TMB solution that is stopped with […]. Absorption was measured at 450 nm. Candidate peptides that show a high exchange yield (preferably higher than 50%, most preferred higher than 75%) are generally preferred for a generation and production of antibodies or fragments thereof, and/or T cell receptors or fragments thereof, as they show sufficient avidity to the MHC molecules and prevent dissociation of the MHC complexes.

Take “4 (SYEKVINYL; listed as Homo sapiens) [compound 4]”: the “Wells positive [%]” value in the test with CD8+ T cells was ““+” (<20% = +)”. Also, the “Peptide exchange (peptide exchange yield, MHC class I binding score)” value (“Peptide exchange” below) in the test with HLA-A*24 is ““++++” (>75% = ++++)”.
In the same order, the values of “6 (KYKDYFPVI; listed as Homo sapiens) [compound 6]” are ““+” (<20% = +)” and ““++++” (>75% = ++++)”.
In the same order, the values of “8 (PFLPPAACFF; listed as Homo sapiens) [compound 8]” are ““+” (<20% = +)” and ““++++” (>75% = ++++)”.
For “10 (VWSDVTPLNF; listed as Homo sapiens) [compound 10]”, the “Wells positive [%]” value in the test with CD8+ T cells is ““+” (<20% = +)”. Further, in the test on HLA-A*24, the “Peptide exchange” value is ““++++” (>75% = ++++)”.
As for “11 (YYSKSVGFMQW; listed as Homo sapiens) [compound 11]”, the “Wells positive [%]” value with CD8+ T cells is ““++” (20%-49% = ++)”. For the same substance, in the test with HLA-A*24, the “Peptide exchange” value was ““++++” (>75% = ++++)”.
For “13 (HYTYILEVF; listed as Homo sapiens) [compound 13]”, the “Wells positive [%]” value with CD8+ T cells is listed as ““+++” (50%-69% = +++)”. Besides, the “Peptide exchange” value with HLA-A*24 is given as ““++++” (>75% = ++++)”.
Take “15 (KYALLLQDL; listed as Homo sapiens) [compound 15]”: the “Wells positive [%]” value in the test with CD8+ T cells is given as ““+++” (50%-69% = +++)”. The “Peptide exchange” value with HLA-A*24 is given as ““++++” (>75% = ++++)”.
Take “16 (TYNPDFSSL; listed as Homo sapiens) [compound 16]”: the “Wells positive [%]” value in the test on CD8+ T cells is listed as ““+” (<20% = +)”. Further, the “Peptide exchange” value in the test on HLA-A*24 is given as ““+++” (>50 = +++)”.
For “59 (KYSTTFFMV; listed as Homo sapiens) [compound 59]”, in that order: ““++” (20%-49% = ++)” and ““++” (>20% = ++)”.
As to “60 (TYLSIFDQL; listed as Homo sapiens) [compound 60]”, in the test with CD8+ T cells, the “Wells positive [%]” value was ““+” (<20% = +)”. The “Peptide exchange” value in the test on HLA-A*24 was ““+++” (>50 = +++)”.
For “61 (NYAENILTL; listed as Homo sapiens) [compound 61]”, in that order: ““++” (20%-49% = ++)” and ““+++” (>50 = +++)”.
For “62 (LYQEILAQL; listed as Homo sapiens) [compound 62]”, in that order: ““+” (<20% = +)” and ““++++” (>75% = ++++)”.
On to “65 (VYPASKMFPFI; listed as Homo sapiens) [compound 65]”, for which the “Wells positive [%]” value with CD8+ T cells is recorded as ““+” (<20% = +)”. Further, the “Peptide exchange” value in the test on HLA-A*24 is given as ““++++” (>75% = ++++)”.
In the same order, the values of “66 (IYFRDSSFL; listed as Homo sapiens) [compound 66]” are ““++” (20%-49% = ++)” and ““++++” (>75% = ++++)”.
For “72 (RYEGILYTI; listed as Homo sapiens) [compound 72]”, the “Wells positive [%]” value with CD8+ T cells was ““+” (<20% = +)”. In addition, the “Peptide exchange” value with HLA-A*24 is ““++++” (>75% = ++++)”.
In the same order, the values of “76 (WYGWHFPEL; listed as Homo sapiens) [compound 76]” are ““+” (<20% = +)” and ““+++” (>50 = +++)”.
For “79 (RYLADLPTL; listed as Homo sapiens) [compound 79]”, in that order: ““+” (<20% = +)” and ““++++” (>75% = ++++)”.
In the same order, the values of “83 (TYCQNIKEF; listed as Homo sapiens) [compound 83]” are ““+” (<20% = +)” and ““++++” (>75% = ++++)”.
Turning to “227 (YPRGNHWAVGH; listed as Homo sapiens) [compound 227]”, the “Peptide exchange” value with HLA-B*07 was ““++++” (>75% = ++++)”.
The same measure, in the same setting: then “229 (VPLPAGGGTV; listed as Homo sapiens) [compound 229]”, with ““+++” (>50 = +++)”; and “230 (VPLPAGGGTVL; listed as Homo sapiens) [compound 230]”, with ““+++” (>50 = +++)”.
On the same count and under the same terms, next, “234 (RAKNAGVTI; listed as Homo sapiens) [compound 234]”: ““++++” (>75% = ++++)”.
The same measure, in the same setting: then “235 (MPLKHYLLL; listed as Homo sapiens) [compound 235]”, with ““++++” (>75% = ++++)”.
For the substance “236 (RVRGGEDGDRAL; listed as Homo sapiens) [compound 236]”, the “Peptide exchange” value in the test with HLA-B*07 was ““++++” (>75% = ++++)”.
The same measure, in the same setting: next, “238 (KPGPPWAAF; listed as Homo sapiens) [compound 238]”: ““++++” (>75% = ++++)”; “239 (YVPSASLFML; listed as Homo sapiens) [compound 239]”: ““++++” (>75% = ++++)”; “240 (SPREVTTVL; listed as Homo sapiens) [compound 240]”: ““++++” (>75% = ++++)”.
For “243 (RPIENRILIL; listed as Homo sapiens) [compound 243]”, in the test with HLA-B*07, the “Peptide exchange” value is ““++++” (>75% = ++++)”.
The same measure, in the same setting: then “246 (TPLPAVIVL; listed as Homo sapiens) [compound 246]”, with ““++++” (>75% = ++++)”.
Same read-out and setting: then “247 (RALLARLLL; listed as Homo sapiens) [compound 247]”, with ““+++” (>50 = +++)”; and “251 (VPRSSGQTV; listed as Homo sapiens) [compound 251]”, with ““++++” (>75% = ++++)”; and “253 (RVIDAVRFTL; listed as Homo sapiens) [compound 253]”, with ““+++” (>50 = +++)”.
“254 (NPFPHLITL; listed as Homo sapiens) [compound 254]”: in the test with HLA-B*07, the “Peptide exchange” value is listed as ““++++” (>75% = ++++)”.
On the same count and under the same terms, next, “255 (MPLLENLYL; listed as Homo sapiens) [compound 255]”: ““++++” (>75% = ++++)”.
“256 (SPRVPSIEL; listed as Homo sapiens) [compound 256]”: the “Peptide exchange” value with HLA-B*07 is ““++++” (>75% = ++++)”.
Still for that read-out and setting: then “257 (LPRIPFADV; listed as Homo sapiens) [compound 257]”, with ““++++” (>75% = ++++)”; and “258 (LPRGPLASL; listed as Homo sapiens) [compound 258]”, with ““++++” (>75% = ++++)”; and “259 (RPPAAGLRGISL; listed as Homo sapiens) [compound 259]”, with ““++++” (>75% = ++++)”.
In the case of “260 (YPQHPGLNA; listed as Homo sapiens) [compound 260]”, the “Peptide exchange” value in the test with HLA-B*07 is ““+++” (>50 = +++)”.
Still for that read-out and setting: then “261 (APSARVGVC; listed as Homo sapiens) [compound 261]”, with ““+++” (>50 = +++)”; and “262 (SAYPQRLEI; listed as Homo sapiens) [compound 262]”, with ““+” (>10% = +)”.
Same read-out and setting: then “263 (HPAPYGDLL; listed as Homo sapiens) [compound 263]”, with ““++++” (>75% = ++++)”.
For the substance “375 (VYSDLHAFYY; listed as Homo sapiens) [compound 375]”, the “Wells positive [%]” value in the test with CD8+ T cells is ““+” (<20% = +)”. The “Peptide exchange” value in the test with HLA-A*24 is reported as ““++++” (>75% = ++++)”.
On to “379 (NYIVPDKQIF; listed as Homo sapiens) [compound 379]”, for which the “Wells positive [%]” value in the test on CD8+ T cells is ““+” (<20% = +)”. Besides, in the test with HLA-A*24, the “Peptide exchange” value is reported as ““+++” (>50 = +++)”.
Turning to “380 (VFQEKHHVI; listed as Homo sapiens) [compound 380]”, in the test with CD8+ T cells, the “Wells positive [%]” value is given as ““+” (<20% = +)”. For the same substance, the “Peptide exchange” value in the test on HLA-A*24 was ““+++” (>50 = +++)”.
For “383 (RYKQDVERF; listed as Homo sapiens) [compound 383]”, in that order: ““+++” (50%-69% = +++)” and ““+++” (>50 = +++)”.
For “384 (KYVKVFDKF; listed as Homo sapiens) [compound 384]”, in that order: ““+++” (50%-69% = +++)” and ““++++” (>75% = ++++)”.
“386 (VYNDHSIYVW; listed as Homo sapiens) [compound 386]”: the “Wells positive [%]” value in the test with CD8+ T cells is recorded as ““++” (20%-49% = ++)”. The “Peptide exchange” value in the test on HLA-A*24 is recorded as ““++++” (>75% = ++++)”.
